The assay deals with SMN protein. The experiment in a line: cellular SMN ELISA (SMN protein elevation). The assay is classed as cell-based. The settings on record: myoblast cell line derived from SMNdelta7 mouse model; 24 hours compound treatment; concentration range 100 pM-10 uM. Put shortly:
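Myoblasts derived from the SMNdelta7 mouse model, 3000 cells/well, treated with compound (100 pM–10 uM) for 24 h, then lysed in modified RIPA buffer. SMN protein quantified by sandwich ELISA (anti-SMN mAb capture, rabbit polyclonal detection, HRP/TMB, 450 nm). Results given as fold activation over DMSO and EC50.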

Structures are written as SMILES. Counter-ions that a name gives are not always drawn.

25 compounds from patent publication US9040712B2, “Thiadiazole analogs thereof and methods for treating SMN-deficiency-related-conditions” (NOVARTIS AG, priority 2013, dated 2015) can be followed below.

A word on the EC50: it is the midpoint of the concentration-response curve. Higher therefore signals a need for much substance. For the compound `COC(=O)c1ccc(-c2nnc(N(C)C3CC(C)(C)NC(C)(C)C3)s2)c(F)c1` [Example 35, methyl 3-fluoro-4-(5-(methyl(2,2,6,6-tetramethyl-piperidin-4-yl)amino)-1,3,4-thiadiazol-2-yl) benzoate], the EC50 amounted to 864 nM and the “SMN Activity Fold (fold activation over DMSO control)” value (“SMN Activity Fold” below) is 2.81 fold.

Regarding `CNc1ccn(-c2ccc(-c3nnc(N(C)C4CC(C)(C)NC(C)(C)C4)s3)c(OC)c2)n1` [Example 36, 5-(2-methoxy-4-(3-(methylamino)-1H-pyrazol-1-yl)phenyl)-N-methyl-N-(2,2,6,6-tetramethyl-piperidin-4-yl)-1,3,4-thiadiazol-2-amine], the EC50 is 163 nM and the “SMN Activity Fold” value was found to be 2.15 fold.

Turning to `COc1cc2nc(C#N)ccc2cc1-c1nnc(N(C)C2CC(C)(C)NC(C)(C)C2)s1` [Example 37, 7-methoxy-6-(5-(methyl(2,2,6,6-tetramethyl-piperidin-4-yl)amino)-1,3,4-thiadiazol-2-yl) quinoline-2-carbonitrile], the concentration giving a half-maximal response (EC50) came to 78 nM and the “SMN Activity Fold” value came out at 2.19 fold.

With `COc1cc(-c2ccn(C)c(=O)c2)ccc1-c1nnc(OC2CC(C)(C)NC(C)(C)C2)s1` [Example 38, 4-(3-methoxy-4-(5-((2,2,6,6-tetramethyl-piperidin-4-yl)oxy)-1,3,4-thiadiazol-2-yl)phenyl)-1-methylpyridin-2(1H)-one], the response was half-maximal at 1520 nM (EC50) and the “SMN Activity Fold” value turned out to be 2.12 fold.

As for `CN(c1nnc(-c2ccc(-c3ccn(C)c(=O)c3)cc2Cl)s1)C1CC(C)(C)NC(C)(C)C1` [Example 39, 4-(3-chloro-4-(5-(methyl(2,2,6,6-tetramethyl-piperidin-4-yl)amino)-1,3,4-thiadiazol-2-yl)phenyl)-1-methylpyridin-2(1H)-one], the EC50 was determined as 50 nM and the “SMN Activity Fold” value came to 2.31 fold.

With `CN(c1nnc(-c2ccc(-c3cn[nH]c3)cc2Cl)s1)C1CC(C)(C)NC(C)(C)C1` [Example 40, 5-(2-chloro-4-(1H-pyrazol-4-yl)phenyl)-N-methyl-N-(2,2,6,6-tetramethylpiperidin-4-yl)-1,3,4-thiadiazol-2-amine], the midpoint of the response, the EC50, lay at 34 nM and the “SMN Activity Fold” value is reported as 2.55 fold.

With `CN(c1nnc(-c2ccc(-c3cnn4c3CCCC4)cc2Cl)s1)C1CC(C)(C)NC(C)(C)C1` [Example 41, 5-(2-chloro-4-(4,5,6,7-tetrahydropyrazolo[1,5-a]pyridin-3-yl)phenyl)-N-methyl-N-(2,2,6,6-tetramethylpiperidin-4-yl)-1,3,4-thiadiazol-2-amine], the midpoint of the response, the EC50, lay at 507 nM and the “SMN Activity Fold” value is reported as 2.44 fold.

For `CN(c1nnc(-c2ccc(-c3cnn(C)c3)cn2)s1)C1CC(C)(C)NC(C)(C)C1` [Example 42, N-methyl-5-(5-(1-methyl-1H-pyrazol-4-yl)pyridin-2-yl)-N-(2,2,6,6-tetramethylpiperidin-4-yl)-1,3,4-thiadiazol-2-amine. Hydrochloride salt], it took 675 nM to reach a half-maximal effect (EC50) and the “SMN Activity Fold” value worked out at 2.32 fold.

As to `Cn1cc(-c2ccc(-c3nnc(OC4CC(C)(C)NC(C)(C)C4)s3)c(Cl)c2)cn1` [Example 43, 2-(2-chloro-4-(1-methyl-1H-pyrazol-4-yl)phenyl)-5-((2,2,6,6-tetramethylpiperidin-4-yl)oxy)-1,3,4-thiadiazole], the response was half-maximal at 446 nM (EC50) and the “SMN Activity Fold” value came out at 2.28 fold.

For the compound `COc1ccc(-c2ccc(-c3nnc(N(C)C4CC(C)(C)NC(C)(C)C4)s3)c(Cl)c2)cn1` [Example 44, 5-(2-chloro-4-(6-methoxypyridin-3-yl)phenyl)-N-methyl-N-(2,2,6,6-tetramethylpiperidin-4-yl)-1,3,4-thiadiazol-2-amine], the response was half-maximal at 4920 nM (EC50) and the “SMN Activity Fold” value was determined as 2.26 fold.

Regarding `CN(c1nnc(-c2ccc(-c3ccc(N)nc3)cc2F)s1)C1CC(C)(C)NC(C)(C)C1` [Example 45, 5-(4-(6-aminopyridin-3-yl)-2-fluorophenyl)-N-methyl-N-(2,2,6,6-tetramethylpiperidin-4-yl)-1,3,4-thiadiazol-2-amine], the EC50 worked out at 163 nM and the “SMN Activity Fold” value is reported as 2.26 fold.

As to `Cc1cc(-c2ccc(-c3nnc(N(C)C4CC(C)(C)NC(C)(C)C4)s3)c(F)c2)[nH]n1` [Example 46, 5-(2-fluoro-4-(3-methyl-1H-pyrazol-5-yl)phenyl)-N-methyl-N-(2,2,6,6-tetramethylpiperidin-4-yl)-1,3,4-thiadiazol-2-amine], the EC50 stood at 122 nM and the “SMN Activity Fold” value came to 2.32 fold.

As for `CN(c1nnc(-c2ccc(-c3ccn[nH]3)cc2F)s1)C1CC(C)(C)NC(C)(C)C1` [Example 47, 5-(2-fluoro-4-(1H-pyrazol-5-yl)phenyl)-N-methyl-N-(2,2,6,6-tetramethylpiperidin-4-yl)-1,3,4-thiadiazol-2-amine], the EC50 was found to be 152 nM and the “SMN Activity Fold” value was 2.29 fold.

Turning to `CN(c1nnc(-c2ccc(-c3cn[nH]c3)c(F)c2F)s1)C1CC(C)(C)NC(C)(C)C1` [Example 48, 5-(2,3-difluoro-4-(1H-pyrazol-4-yl)phenyl)-N-methyl-N-(2,2,6,6-tetramethylpiperidin-4-yl)-1,3,4-thiadiazol-2-amine], the EC50 was 33 nM and the “SMN Activity Fold” value amounted to 3.04 fold.

In the case of `CN(c1nnc(-c2ccc(-c3ccn[nH]3)c(F)c2F)s1)C1CC(C)(C)NC(C)(C)C1` [Example 49, 5-(2,3-difluoro-4-(1H-pyrazol-5-yl)phenyl)-N-methyl-N-(2,2,6,6-tetramethylpiperidin-4-yl)-1,3,4-thiadiazol-2-amine], it took 81 nM to reach a half-maximal effect (EC50) and the “SMN Activity Fold” value is on record as 2.42 fold.

Consider `CN(c1nnc(-c2cc(F)c(-c3cn[nH]c3)cc2F)s1)C1CC(C)(C)NC(C)(C)C1` [Example 50, 5-(2,5-difluoro-4-(1H-pyrazol-4-yl)phenyl)-N-methyl-N-(2,2,6,6-tetramethylpiperidin-4-yl)-1,3,4-thiadiazol-2-amine], for which a half-maximal effect (EC50) was put at 20 nM and the “SMN Activity Fold” value was found to be 3.07 fold.

Consider `CN(c1nnc(-c2cc(F)c(-c3ccn[nH]3)cc2F)s1)C1CC(C)(C)NC(C)(C)C1` [Example 51, 5-(2,5-difluoro-4-(1H-pyrazol-5-yl)phenyl)-N-methyl-N-(2,2,6,6-tetramethylpiperidin-4-yl)-1,3,4-thiadiazol-2-amine], for which the midpoint of the response, the EC50, lay at 85 nM and the “SMN Activity Fold” value was 2.86 fold.

On to `CN(c1nnc(-c2c(F)cc(-c3cn[nH]c3)cc2F)s1)C1CC(C)(C)NC(C)(C)C1` [Example 52, 5-(2,6-difluoro-4-(1H-pyrazol-4-yl)phenyl)-N-methyl-N-(2,2,6,6-tetramethylpiperidin-4-yl)-1,3,4-thiadiazol-2-amine], for which the EC50 came to 61 nM and the “SMN Activity Fold” value was found to be 3.30 fold.

With `Fc1cc(-c2nnc(N3C[C@H]4CNC[C@H]4C3)s2)c(F)cc1-c1cn[nH]c1` [Example 53, 2-(2,5-difluoro-4-(1H-pyrazol-4-yl)phenyl)-5-((3aR,6aS)-hexahydropyrrolo[3,4-c]pyrrol-2(1H)-yl)-1,3,4-thiadiazole], the midpoint of the response, the EC50, lay at 70 nM and the “SMN Activity Fold” value was 2.56 fold.

For the compound `CN(c1nnc(-c2cc(F)c(-c3cn[nH]c3)cc2Cl)s1)C1CC(C)(C)NC(C)(C)C1` [Example 54, 5-(2-chloro-5-fluoro-4-(1H-pyrazol-4-yl)phenyl)-N-methyl-N-(2,2,6,6-tetramethylpiperidin-4-yl)-1,3,4-thiadiazol-2-amine], the EC50 amounted to 47 nM and the “SMN Activity Fold” value is given as 3.16 fold.

For the compound `CN(c1nnc(-c2ncc(-c3cn[nH]c3)cc2F)s1)C1CC(C)(C)NC(C)(C)C1` [Example 55, 5-(3-fluoro-5-(1H-pyrazol-4-yl)pyridin-2-yl)-N-methyl-N-(2,2,6,6-tetramethylpiperidin-4-yl)-1,3,4-thiadiazol-2-amine], the EC50 was found to be 1010 nM and the “SMN Activity Fold” value is given as 2.75 fold.

Take `CN(c1nnc(-c2ccc(-c3ccnc(N)n3)cc2Cl)s1)C1CC(C)(C)NC(C)(C)C1` [Example 56, 5-(4-(2-aminopyrimidin-4-yl)-2-chlorophenyl)-N-methyl-N-(2,2,6,6-tetramethylpiperidin-4-yl)-1,3,4-thiadiazol-2-amine]: the EC50 is 41 nM and the “SMN Activity Fold” value is listed as 2.47 fold.

For the compound `CN(c1nnc(-c2cc(-c3ccnc(N)n3)ccc2Cl)s1)C1CC(C)(C)NC(C)(C)C1` [Example 57, 5-(5-(2-aminopyrimidin-4-yl)-2-chlorophenyl)-N-methyl-N-(2,2,6,6-tetramethylpiperidin-4-yl)-1,3,4-thiadiazol-2-amine], the concentration giving a half-maximal response (EC50) was found to be 94 nM and the “SMN Activity Fold” value was 2.55 fold.

Take `Cc1nc(C)c(-c2cc(F)c(-c3nnc(N(C)C4CC(C)(C)NC(C)(C)C4)s3)cc2F)s1` [Example 58, 5-(4-(2,4-dimethylthiazol-5-yl)-2,5-difluorophenyl)-N-methyl-N-(2,2,6,6-tetramethylpiperidin-4-yl)-1,3,4-thiadiazol-2-amine]: the EC50 amounted to 386 nM and the “SMN Activity Fold” value was determined as 2.41 fold.

`Cc1nc(C)c(-c2ccc(-c3nnc(N(C)C4CC(C)(C)NC(C)(C)C4)s3)c(F)c2F)s1` [Example 59, 5-(4-(2,4-dimethylthiazol-5-yl)-2,3-difluorophenyl)-N-methyl-N-(2,2,6,6-tetramethylpiperidin-4-yl)-1,3,4-thiadiazol-2-amine]: the midpoint of the response, the EC50, lay at 1500 nM and the “SMN Activity Fold” value was determined as 2.69 fold.
